Source: article PMC6296175, “Oxidative stress‐induced structural changes in the microtubule‐associated flavoenzyme Irc15p from Saccharomyces cerevisiae” (Protein Science : A Publication of the Protein Society, 2018)
Blank lines part the entries; values can stand above or below the molecule they belong to.

Legend:
Irc15p [1] = target: T1, Irc15p (Saccharomyces cerevisiae, UniProt Q02733); assay: HPLC of flavin released from denatured protein; UV-Vis absorption; format: binding; conditions: co-purified; lysis buffer supplemented with 10 μM FAD; one FAD per protomer
T1 construct: gene IRC15; E. coli Rosetta (DE3); ~55 kDa subunit, homodimer ~113-115 kDa, one FAD per protomer
T1 sequence (Q02733 1-499): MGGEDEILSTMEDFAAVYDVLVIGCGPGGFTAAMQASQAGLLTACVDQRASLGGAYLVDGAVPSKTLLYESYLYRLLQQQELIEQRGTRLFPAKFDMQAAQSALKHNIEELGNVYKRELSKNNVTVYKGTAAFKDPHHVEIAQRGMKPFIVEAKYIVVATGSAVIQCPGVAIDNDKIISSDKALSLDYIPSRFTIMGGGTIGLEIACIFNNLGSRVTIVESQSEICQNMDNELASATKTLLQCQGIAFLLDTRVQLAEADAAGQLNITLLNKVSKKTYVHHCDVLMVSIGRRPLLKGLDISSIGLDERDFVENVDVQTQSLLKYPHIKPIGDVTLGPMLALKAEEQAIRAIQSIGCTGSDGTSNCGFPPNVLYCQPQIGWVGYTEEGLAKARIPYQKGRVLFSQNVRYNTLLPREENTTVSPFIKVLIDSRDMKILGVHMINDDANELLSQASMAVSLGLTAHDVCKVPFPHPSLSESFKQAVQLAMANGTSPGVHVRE

Irc15p [2] = target: T1, Irc15p; assay: thermal shift assay (SYPRO Orange); format: binding; conditions: 50 mM HEPES, 50 mM NaCl, 1 mM DTT, pH 7.0, absolute Tm, compare ligand-free control in the 4th table, row 3
Excerpt: thermal shift assay (SYPRO Orange) on Irc15p

Irc15p [3] = target: T1, Irc15p; assay: stopped-flow reductive half-reaction, flavin absorption at […] nm, hyperbolic fit of rate; format: biochemical; conditions: anoxic; 50 mM HEPES, 50 mM NaCl, 1 mM DTT, pH 7.0; 4 °C; pre-steady-state; read-out: dissociation constant
[4] = target: the molecule itself; assay: SEC; analytical size exclusion chromatography, Superdex 200 10/300 GL, buffer A (50 mM HEPES, 150 mM NaCl, 1 mM DTT, pH 7.0), calibrated with molecular mass standards; elution monitored at 280 and 450 nm

Molecule: Cc1cc2nc3c(=O)[nH]c(=O)nc-3n(C[C@H](O)[C@H](O)[C@H](O)COP(=O)(O)OP(=O)(O)OC[C@H]3O[C@@H](n4cnc5c(N)ncnc54)[C@H](O)[C@@H]3O)c2cc1C [FAD]
- HPLC of flavin released from denatured protein; UV-Vis absorption (Irc15p [1]): closely corresponding to the retention time of authentic FAD

Molecule: NC(=O)C1=CN([C@@H]2O[C@H](COP(=O)(O)OP(=O)(O)OC[C@H]3O[C@@H](n4cnc5c(N)ncnc54)[C@H](O)[C@@H]3O)[C@@H](O)[C@H]2O)C=CC1 [NADH]
- T m [°C] (Irc15p [2]; 50 mM NADH, ligand reduces the FAD): 47 °C
- Kd (Irc15p [3]): 100 ± 5 µM

B1: Irc15p (increased recombination centers 15) (enzyme, S. cerevisiae, UniProt Q02733 1-499, looked up)
chain: MGGEDEILSTMEDFAAVYDVLVIGCGPGGFTAAMQASQAGLLTACVDQRASLGGAYLVDGAVPSKTLLYESYLYRLLQQQELIEQRGTRLFPAKFDMQAAQSALKHNIEELGNVYKRELSKNNVTVYKGTAAFKDPHHVEIAQRGMKPFIVEAKYIVVATGSAVIQCPGVAIDNDKIISSDKALSLDYIPSRFTIMGGGTIGLEIACIFNNLGSRVTIVESQSEICQNMDNELASATKTLLQCQGIAFLLDTRVQLAEADAAGQLNITLLNKVSKKTYVHHCDVLMVSIGRRPLLKGLDISSIGLDERDFVENVDVQTQSLLKYPHIKPIGDVTLGPMLALKAEEQAIRAIQSIGCTGSDGTSNCGFPPNVLYCQPQIGWVGYTEEGLAKARIPYQKGRVLFSQNVRYNTLLPREENTTVSPFIKVLIDSRDMKILGVHMINDDANELLSQASMAVSLGLTAHDVCKVPFPHPSLSESFKQAVQLAMANGTSPGVHVRE
notes: The forward primer carries the start ATG; Homodimer with one FAD per protomer; this was read from the printed primers; source: E. coli Rosetta (DE3), pET21d(+)IRC15, purified (Ni-NTA HisTrap HP; for SAXS also size exclusion chromatography)
- stoichiometry N [4]: 2

The next lines start with the values.

- T m [°C] (Irc15p [2]; 50 mM NADPH, ligand reduces the FAD): 45 °C
Molecule: NC(=O)C1=CN([C@@H]2O[C@H](COP(=O)(O)OP(=O)(O)OC[C@H]3O[C@@H](n4cnc5c(N)ncnc54)[C@H](OP(=O)(O)O)[C@@H]3O)[C@@H](O)[C@H]2O)C=CC1 [NADPH]

- T m [°C] (Irc15p [2]; 50 mM NAD+): 64 °C
Molecule: NC(=O)c1ccc[n+]([C@@H]2O[C@H](COP(=O)(O)OP(=O)(O)OC[C@H]3O[C@@H](n4cnc5c(N)ncnc54)[C@H](O)[C@@H]3O)[C@@H](O)[C@H]2O)c1 [NAD^+]
